Laboratory results reported in patent EP3970494A1 (priority 2020, dated 2022).

Experiments:
Assay in all cases: microbe, parasite or virus in culture
Assay type in all cases: cell-based
Fusarium culmorum = details: 168 h
Septoria tritici = details: Zymoseptoria tritici, 168 h
Phytophthora infestans = details: 168 h, read-out: Fungal growth at 31 ppm (%) PHYTIN

CO/N=C(/C(=O)OC)c1cccc(C)c1CO/N=C(\C)c1ccnc(SC)c1 [Example 94]
activity at 31 ppm (Fusarium culmorum): 15% | activity at 31 ppm (Septoria tritici): 1% | activity at 31 ppm (Phytophthora infestans): 1%

CNC(=O)/C(=N/OC)c1cccc(C)c1CO/N=C(\C)c1cc(C(F)F)ccn1 [Example 37]
activity at 31 ppm (Fusarium culmorum): 12% | activity at 31 ppm (Septoria tritici): 3% | activity at 31 ppm (Phytophthora infestans): 0%

CO/N=C(/C(=O)OC)c1cccc(C)c1CO/N=C(\C)c1cnc(C(F)(F)F)cn1 [Example 96, Methyl (2E)-2-methoxyimino-2-[3-methyl-2-[[(E)-1-[5-(trifluoromethyl)pyrazin-2-yl]ethylideneamino]oxymethyl]phenyl]acetate]
activity at 31 ppm (Fusarium culmorum): 13% | activity at 31 ppm (Septoria tritici): 18% | activity at 31 ppm (Phytophthora infestans): 0%

CNC(=O)/C(=N/OC)c1cccc(C)c1CO/N=C(\C)c1cc(C(F)(F)F)cc(Cl)n1 [Example 43]
activity at 31 ppm (Fusarium culmorum): 14% | activity at 31 ppm (Septoria tritici): 13% | activity at 31 ppm (Phytophthora infestans): 9%
